Measured values taken from patent US20240417410A1, “TRICYCLIC COMPOUNDS FOR THE TREATMENT OF CANCER” (Hoffmann-La Roche Inc., priority 2023, published 2024).
Read-outs that look alike come from different tables or passages of the source.

How the values were obtained:
[1] = Single dose pharmacokinetics (PK) study in female BALB/c mice; format: in vivo, mouse
Protocol: The purpose of this study was to determine the pharmacokinetics of selected compounds following single intravenous bolus or oral gavage administration in female BALB/c mice. Briefly, two groups of female BALB/c mice (available from Shanghai Lingchang Biotechnology Co., Ltd) (N=3/group) were treated with a single dose of compound intravenously at 3 mg/kg (IV) or orally at 30 mg/kg (PO). Blood samples were collected at 5 min (only for IV), […], 30 min, 1 h, 2 h, 4 h, 7 h and 24 h post-dose. Blood samples were placed on ice until centrifugation to obtain plasma samples. The concentration of compound in plasma samples was determined using LC-MS/MS method. The pharmacokinetic parameters were calculated by non-compartmental analysis.

[2] = test system: NCI-H358 (KRAS G12C); assay: Washout viability assay; format: cell-based; settings: for IC50: Homo sapiens; for IC50 shift fold: washout vs no-washout
Protocol: (§1) Cancer cell lines NCI-H358, NCI-H2122, and SW480 (purchased from ATCC) were cultured in RPMI1640 (Thermo Fisher Scientific) medium plus 10% Fetal Bovine Serum (FBS, Thermo Fisher Scientific, 2.5 μg/mL puromycin and 1% Antibiotic-Antimycotic (Thermo Fisher Scientific) and plated at a density of 2,000 cells per well in 96-well assay plates (Corning-3699) and incubated overnight. On the assay day, compounds diluted to a final DMSO concentration of 0.5% were added to the wells. Following a 4-hour incubation period, the culture medium was removed, and the cells were washed three times with RPMI1640 medium only before being cultured in the abovementioned culture medium (RPMI1640+10% FBS+1% antibiotic-antimycotic). After 72 hours, a tenth of the volume of Cell Counting Kit-8 (Dojindo-CK04) was added to each well. The absorbance was measured (OD450 minus OD650) using an EnVision plate reader after a further 2-hour incubation. The IC50 values were calculated by applying a four-parameter sigmoidal concentration-response curve fit to the data.

[3] = test system: SW480 (KRAS G12V); assay: Washout viability assay; format: cell-based; settings: for IC50: Homo sapiens; for IC50 shift fold: washout vs no-washout
Protocol: as §1

[4] = test system: NCI-H2122 (KRAS G12C); assay: Washout viability assay; format: cell-based; settings: for IC50: Homo sapiens; for IC50 shift fold: washout vs no-washout
Protocol: as §1

[5] = target: WT KRAS-BRAF complex (Homo sapiens (Human), UniProt P01116+P62937); assay: WT KRAS-BRAF with CYPA interaction assay (TR-FRET); format: biochemical; settings: WT KRAS
Protocol: In this example, TR-FRET was used to measure the compound or compound-CYPA dependent disruption of the KRAS G12V-BRAF complex to assess inhibition efficacy. The IC50 ratio between WT KRAS/HRAS/NRAS and KRAS G12V mutant was calculated as selective index, which indicated tolerability and safety profile. Disruption of WT KRAS/HRAS/NRAS-BRAF complex by compounds was detected respectively. In assay buffer containing 25 mM HEPES (PH-7.4,4-(2-hydroxyethyl)-1-piperazineethanesulfonic acid, Thermo, 15630080), 0.002% Tween20, 0.1% BSA, 100 mM NaCl, 5 mM MgCl2, 10 μM GMPPNP (Guanosine 5′-[β,γ-imido]triphosphate trisodium salt hydrate, Sigma, G0635), tagless CYPA and GMPPNP loaded 6His-RAS proteins, and GST-BRAF^RBD were mixed in a well of a 384-well assay plate at final concentrations of 50 nM, 6.25 nM and 1 nM, respectively. Compound was present in plate wells as a 16-point 3-fold dilution series starting at a final concentration of 10 μM and incubated for 3 hours. A mixture of MAb Anti-6His-XL665 (Cisbio, 61HISXLB) and Mab anti-GST-TB cryptate (Cisbio, 61GSTTLB) was then added at a final concentration of 6.67 nM and 0.21 nM, respectively, and the plate was incubated for an additional 1.5 hours. TR-FRET signal was read on a PHERstar FSX microplate reader (Ex320 nm, Em 665/615 nm). Compounds that facilitate disruption of the RAS-BRAF complex were identified as those eliciting a decrease in the TR-FRET ratio relative to DMSO control wells.

[6] = test system: DUSP6; assay: SHP-77 xenograft single-dose PK/PD study, tumor DUSP6 levels; format: in vivo, mouse; settings: single oral dose of 30 mg/kg
From the text: The purpose of the study was to assess the anti-tumor activity in difficult KRAS mutated xenograft tumor model using SHP-77 (small cell lung cancer, SCLC; ATCC CRL-2195) by examining the time-dependent effects on MAPK pathway modulation and tumor suppression post-administration of Example 24 and reference compound A122.
Female CB17-SCID mice at 6-8 weeks old from Vital River Co., LTD. were used for these studies. In order to generate subcutaneous xenograft tumors, each mouse was inoculated at the right flank with tumor cells in 100 μL of PBS and Matrigel matrix in the right hind flank with 1×10^7 cells. Mouse health was monitored daily, and caliper measurements began when tumors were palpable. Tumor volume measurements were determined utilizing the formula 0.5×L×W^2 in which L refers to length and W refers to width of each tumor. When tumors reached an average tumor volume of approximately 100-200 mm^3 for efficacy study and 300-500 mm^3 for single-dose PK/PD study, mice were randomized into treatment groups.
Mice were treated by oral gavage at 10 mg/kg with either vehicle consisting of DMSO: Solutol HS15: water=10:10:80 (% v/v/v) or compounds (Example 24, A122) in vehicle at indicated doses. For efficacy studies, animals were orally administered daily, tumor volumes and body weights were measured 3 times per week. Study day on efficacy plots indicates the day after which compound treatment was initiated. For single-dose PK/PD study, at the indicated time points after a single dose of Example 24 at the indicated dose levels, tumor samples were collected for PD analysis. RNA extraction and analysis of DUSP6 levels by in tumor tissue were performed as described in Example 134.

[7] = 30 mg/kg, po, female BALB/c mice
[8] = NCI-H358 (KRAS G12C), 4-hour treatment, three washes, 72 hours, read-out: Washout IC50
[9] = NCI-H358, KRAS (G12C), read-out: No-washout IC50
[10] = 4-hour treatment, three washes, 72 hours, read-out: Washout IC50
[11] = NCI-H2122 (KRAS G12C), 4-hour treatment, three washes, 72 hours, read-out: Washout IC50
[12] = NCI-H2122, KRAS (G12C), read-out: No-washout IC50

Sequence of WT KRAS-BRAF complex (P01116-2 whole entry, looked up): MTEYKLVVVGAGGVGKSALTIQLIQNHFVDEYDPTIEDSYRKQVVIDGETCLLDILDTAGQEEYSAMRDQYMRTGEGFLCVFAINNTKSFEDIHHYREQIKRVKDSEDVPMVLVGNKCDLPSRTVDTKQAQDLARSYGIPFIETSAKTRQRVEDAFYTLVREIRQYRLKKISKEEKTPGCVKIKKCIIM
Sequence of WT KRAS-BRAF complex (P62937 whole entry, looked up): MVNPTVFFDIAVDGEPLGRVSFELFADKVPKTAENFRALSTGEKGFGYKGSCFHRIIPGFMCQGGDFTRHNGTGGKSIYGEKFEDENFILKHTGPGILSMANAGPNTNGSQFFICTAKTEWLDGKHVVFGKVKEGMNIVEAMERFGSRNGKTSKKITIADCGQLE

| SMILES | IC50 [2, 8] [nM] | IC50 [2, 9] [nM] | IC50 shift fold ([2]; NCI-H358 (KRAS G12C)) [fold] | IC50 [3, 10] [nM] | IC50 ([3]; read-out: No-washout IC50) [nM] | IC50 shift fold [3] [fold] | IC50 [4, 11] [nM] | IC50 [4, 12] [nM] | IC50 shift fold ([4]; NCI-H2122 (KRAS G12C)) [fold] | IC50 [5] [nM] | tumor DUSP6 levels remaining ([6]; 24 h) [%] | tumor DUSP6 levels remaining ([6]; 48 hours) [%] | tumor DUSP6 levels remaining ([6]; 72 hours) [%] | further results |
| --- | --- | --- | --- | --- | --- | --- | --- | --- | --- | --- | --- | --- | --- | --- |
| CO[C@@H](C)c1ncc(N2CCN(C)CC2)cc1-c1c2c3cc(cc4c3n1CCC4)-c1csc(n1)C[C@H](NC(=O)[C@H]1[C@H](C)[C@@H]1C)C(=O)N1CCC[C@H](N1)C(=O)OCC(C)(C)C2 (atropisomer, axis not shown; (M)) [Example 24, (1r,2R,3S)-N-[(7S,13S)-(20M)-20-[2-[(1S)-1-methoxyethyl]-5-(4-methylpiperazin-1-yl)-3-pyridyl]-17,17-dimethyl-8,14-dioxo-15-oxa-4-thia-9,21,30,31-tetrazahexacyclo[23.3.1.1^2,5.1^9,13.0^19,27.0^21,26]hentriaconta-1 (28),2,5 (31), 19,25 (29),26-hexaen-7-yl]-2,3-dimethyl-cyclopropanecarboxamide] | 5.9 | 1 | 5.6 | 8.4 | 1.3 | 6.7 | 9 | 6.7 | 1.3 | 32 | 3.9 | 31 | 73.7 | CL ([1]; 3 mg/kg, iv, female BALB/c mice): 5.3 mL/min/kg; AUC0-last [1, 7]: 57240 ng·h/mL; Cmax [1, 7]: 10498 ng/mL; fold increase in AUC0-last compared with compound A122 ([1]; 30 mg/kg, po, mouse): 6 fold; fold increase in AUC0-last compared with compound A252 ([1]; 30 mg/kg, po, mouse): 4 fold; fold increase in Cmax compared with compound A122 ([1]; 30 mg/kg, po, mouse): ~4 fold; fold increase in Cmax compared with compound A252 ([1]; 30 mg/kg, po, mouse): 4.3 fold |
| CCn1c(-c2cc(N3CCN(C)CC3)cnc2[C@H](C)OC)c2c3cc(ccc31)-c1csc(n1)C[C@H](NC(=O)[C@H]1C[C@@H]1C)C(=O)N1CCC[C@H](N1)C(=O)OCC(C)(C)O2 [Example A122, reference compound] | 32.1 | 2 | 16.2 | 47.3 | 2.4 | 19.7 | 29 | 8 | 3.6 | 16 | 4.3 | 67 | 126 | clearance ([1]; female, BALB/c, mouse, plasma, iv, 3 mg/kg, female BALB/c mice): 33.9 mL/min/kg; AUC(0-t) ([1]; female, BALB/c, mouse, plasma, po, 30 mg/kg, female BALB/c mice): 9760 ng·h/mL; Cmax ([1]; female, BALB/c, mouse, plasma, po, 30 mg/kg, po, female BALB/c mice, read-out: Cmax): 2530 ng/mL |
